Measurements from patent US4698341A, “Use of 1,6-naphthyridinone derivatives in treating pulmonary thrombosis” (Godecke Aktiengesellschaft, priority 1983, dated 1987).
Like-named read-outs stand apart in the source and are kept apart here.

Assays:
tenia coli (guinea pig) = assay: Ca2+ effect on the smooth muscles, tenia coli, inhibition of contraction amplitude; format: cell-based; settings: Cavia porcellus, 10 min, 32° C.; for inhibition: 3·10^-5 mol/l
Experimental: 1. Ca^2+ effect on the smooth muscles
Approximately 10 mm long, freshly isolated pieces of the tenia coli (guinea pig) were encircled at both ends with threads and connected with a mechanico-technical transducer in the organ bath (32° C., bubbled through with carbogen). Five to ten mN (0.5-1 p) were selected as mechanical pretension. […] This solution was exchanged for K+-rich and Ca++-free solution (40 mmol/l) KCl for depolarization of the cell membrane, the NaCl concentration being decreased correspondingly. One mmol/l CaCl2 was added to the nutrient solution under equilibrium conditions, resulting in a contraction of the muscle preparation. After reaching the new equilibration the test substance was added to the organ bath.
The percentage inhibition of the contraction amplitude after a ten-minute time of action of the test substance, related to the amplitude prior to administration of the substance, was calculated as substance effect. Each substance was tested in two preparations.

[1] = test system: ADP-induced thrombocyte aggregation (platelet-rich plasma); assay: ADP-induced thrombocyte aggregation in vitro (rat); format: cell-based, rat (male Sprague Dawley SIV 50); settings: read-out: IC50 value, ADP-induced thrombocyte aggregation
Experimental: (§1) Collagen or ADP-induced thrombocyte aggregation in vitro (rat)
(§2) The test was carried out according to the method of BORN (Nature 194, 927-929, 1962). […] Blood was withdrawn from the postorbital venous plexus under ether anesthesia. Nine aliquots of blood were mixed with one aliquot of 3.8% (w/v) tri-Na-citrate solution. After low speed centrifugation of the mixture at room temperature, the platelet-rich plasma (PRP corresponding to the erythrocyte-frree supernatant) was removed and adjusted to a standard concentration of 400 000/μl. A universal aggregometer (Braun, Melsungen) connected with an Eppendorf photometer 1100M (Netheler and Hinz, Hamburg) was used as a measuring instrument. In this test portions of 700 μl of platelet-rich plasma (PRP) were equilibrated in the aggregometer at 37° C. for five minutes and then mixed with 58 μl of the test substance solution or with a 0.9% NaCl solution (corresponding to the blank value). After an incubation time of three minutes, the addition of 35 μl collagen suspension (collagen reagent HORM(®), Hormon Chemie, Munich) or 20 μl ADP solution (end concentration in the test 1×10^-5 mol/liter) causes aggregation. A compensation recorder recorded the change in transmission during the following 15 minutes.
(§3) The largest change in transmission occurring in this period was called amplitude (amp) of the aggregation curve. Aggregation-inhibiting substances produce a decrease of this amplitude; the inhibitory effect (E) of a substance is calculated according to the following formula:
(§4) E=(Ampbank value -AMPtest substance)/Ampblank value
(§5) Dose-effect curves were drawn for calculating the IC50 values.

[2] = test system: Collagen-induced thrombocyte aggregation (platelet-rich plasma); assay: Collagen-induced thrombocyte aggregation in vitro (rat); format: cell-based, rat (male Sprague Dawley SIV 50); settings: read-out: IC50 value, collagen-induced thrombocyte aggregation
Experimental: as §1, §2, §3, §4, §5

[3] = test system: left atrium of guinea pig; assay: Isolated left atrium of guinea pigs, inhibition of contraction amplitude; format: cell-based; settings: Cavia porcellus; approximate values from four atriums, 35° C., 100 imp/min
Experimental: 2. Isolated atriums of guinea pigs
In a thermostated (35° C.) dissecting dish containing modified nutrient solution acc. to Krebs-Henseleit the left atrium was cautiously separated from the ventricle myocardium by means of scissors and a needle with thread passed through the apex of the atrium and knotted. Subsequently, the basis of the atrium was fastened to the hook of a preparation holder and transferred to a thermostated organ bath containing nutrient solution (25 ml, 35° C.). In the organ bath the thread at the apex of the atrium was attached to a mechanicoelectric transducer. Electrical stimulation was effected supramaximally with a frequency of 100 imp/min (stimulation range 2.5 msec). The hook of the preparation holder represented an electrode, whereas the second electrode was designed as field electrode in the preparation holder parallel to the tensioned atrium.
The substances were cumulatively added to the organ bath at intervals of four minutes.

[4] = rat PRP 400 000/μl, 37° C., ADP 1×10^-5 mol/liter, Arith. M±S.D.
[5] = rat PRP 400 000/μl, 37° C., collagen, Arith. M±S.D.

SMILES	inhibition at 1 µM (tenia coli (guinea pig); 10^-6 mol/l) [%]	IC50 ([1]; Rattus norvegicus) [µM]	IC50 ([2]; Rattus norvegicus) [µM]	IC50 [3] [µM]	inhibition (tenia coli (guinea pig)) [%]	IC50 [1, 4] [µM]	IC50 [2, 5] [µM]
COc1ccc(CCN(C)CCCC(C#N)(c2ccc(OC)c(OC)c2)C(C)C)cc1OC (stereo not drawn) [Verapamil, reference compound]	100	560 ± 60	210 ± 20	2	–	–	–
CCOC(=O)C1=C(C)Nc2ccn(CCCN3CCCCC3)c(=O)c2C1c1cccc(Cl)c1 (stereo not drawn) [Example 4 c., 1,4,5,6-Tetrahydro-4-(3-chlorophenyl)-2-methyl-5-oxo-6-(3-piperidinopropyl)-1,6-naphthyridine-3-carboxylic acid ethyl ester]	–	–	–	300	44 ± 6	180 ± 10	60 ± 10
CCOC(=O)C1=C(C)Nc2ccn(CCCN3CCCCC3)c(=O)c2C1c1ccccc1Cl (stereo not drawn) [Example 4 e., 1,4,5,6-Tetrahydro-4-(2-chlorophenyl)-2-methyl-5-oxo-6-(3-piperidinopropyl)-1,6-naphthyridine-3-carboxylic acid ethyl ester.1/2 ethyl acetate]	–	–	–	100	81 ± 5	330 ± 20	160 ± 20
CCOC(=O)C1=C(C)Nc2ccn(CCCN(C)C)c(=O)c2C1c1cccc([N+](=O)[O-])c1 (stereo not drawn) [Example 2, 1,4,5,6-Tetrahydro-6-(3-dimethylaminopropyl)-2-methyl-4-(3-nitrophenyl)-5-oxo-1,6-naphthyridine-3-carboxylic acid ethyl ester]	–	–	–	300	88 ± 12	510 ± 40	160 ± 10
CCOC(=O)C1=C(C)Nc2ccn(CCCN3CCCCC3)c(=O)c2C1c1cccc([N+](=O)[O-])c1 (stereo not drawn) [Example 4 f., 1,4,5,6-Tetrahydro-2-methyl-4-(3-nitrophenyl)-5-oxo-6-(3-piperidinopropyl)-1,6-naphthyridine-3-carboxylic acid ethyl ester]	–	–	–	100	79 ± 3	240 ± 10	70 ± 10
CCOC(=O)C1=C(C)Nc2ccn(CCCN(C)C)c(=O)c2C1c1cccc(Cl)c1 (stereo not drawn) [Example 4 b., 1,4,5,6-Tetrahydro-4-(3-chlorophenyl)-6-(3-dimethylaminopropyl)-2-methyl-5-oxo-1,6-naphthyridine-3-carboxylic acid ethyl ester]	–	–	–	300	57 ± 7	410 ± 50	160 ± 10
